Source: patent US9695155B2, “Herbicidal substituted pyrimidinyloxy benzene compounds” (E. I. DU PONT DE NEMOURS AND COMPANY, priority 2013, dated 2017)

Tests used:
[1] = tested on: corn; assay: Test C postemergence; type: in vivo, Zea mays; details: for Plant response rating (0 to 100), Corn: 16 g ai/ha, 0 is no effect, 100 is complete control; for Plant response rating, Corn: scale 0 to 100 (0 no effect, 100 complete control)
Procedure, shortened: (§1)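 Visual injury score versus untreated controls, 0 = no effect, 100 = complete control, taken 13 to 15 days after treatment in the greenhouse. Pre-emergence pots held loam/sand; post-emergence plants grew in sphagnum peat/vermiculite mix and were sprayed at the 1- to 4-leaf stage.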

[2] = tested on: chickweed; assay: Test C postemergence; type: in vivo, Stellaria media; details: for Plant response rating (0 to 100), Chickweed: 16 g ai/ha, 0 is no effect, 100 is complete control; for Plant response rating, Chickweed: scale 0 to 100 (0 no effect, 100 complete control)
Procedure, shortened: as §1

[3] = tested on: barnyardgrass; assay: Test B flooded paddy test; type: in vivo, Echinochloa crus-galli; details: Flood, 250 g ai/ha; 0 to 100 scale where 0 is no effect and 100 is complete control
Procedure, shortened: (§2)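 2-leaf stage plants; pots flooded to 3 cm, compound added to paddy water, depth maintained. Greenhouse 13–15 d. Visual rating vs untreated controls, 0 (no effect) to 100 (complete control); dash = no result.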

[4] = tested on: large (Lg) crabgrass; assay: Test C preemergence; type: in vivo, Digitaria sanguinalis; details: for Crabgrass, Large plant response rating: preemergence; for Plant response rating, Crabgrass, Large: Preemergence, 31 g ai/ha, scale 0 to 100, 0 no effect, 100 complete control
Procedure, shortened: as §1

[5] = tested on: large (Lg) crabgrass; assay: Test C postemergence; type: in vivo, Digitaria sanguinalis; details: for Plant response rating (0 to 100), Crabgrass, Large: 16 g ai/ha, 0 is no effect, 100 is complete control; for Plant response rating, Crabgrass, Large: scale 0 to 100 (0 no effect, 100 complete control)
Procedure, shortened: as §1

[6] = tested on: waterhemp; assay: Test C postemergence; type: in vivo, Amaranthus rudis; details: for Plant response rating (0 to 100), Waterhemp: 16 g ai/ha, 0 is no effect, 100 is complete control; for Plant response rating, Waterhemp: scale 0 to 100 (0 no effect, 100 complete control)
Procedure, shortened: as §1

[7] = tested on: giant foxtail; assay: Test C postemergence; type: in vivo, Setaria faberii; details: for Plant response rating (0 to 100), Foxtail, Giant: 16 g ai/ha, 0 is no effect, 100 is complete control; for Plant response rating, Foxtail, Giant: scale 0 to 100 (0 no effect, 100 complete control)
Procedure, shortened: as §1

[8] = tested on: pigweed; assay: Test C preemergence; type: in vivo, Amaranthus retroflexus; details: for Pigweed plant response rating: preemergence
Procedure, shortened: as §1

[9] = tested on: barnyardgrass; assay: Test C postemergence; type: in vivo, Echinochloa crus-galli; details: for Plant response rating (0 to 100), Barnyardgrass: 16 g ai/ha, 0 is no effect, 100 is complete control; for Plant response rating, Barnyardgrass: scale 0 to 100 (0 no effect, 100 complete control)
Procedure, shortened: as §1

[10] = tested on: sedge, umbrella; assay: Test B flooded paddy test; type: in vivo, Cyperus difformis; details: Flood, 250 g ai/ha; 0 to 100 scale where 0 is no effect and 100 is complete control
Procedure, shortened: as §2

[11] = tested on: lambsquarters; assay: Test C postemergence; type: in vivo, Chenopodium album; details: for Plant response rating (0 to 100), Lambsquarters: 16 g ai/ha, 0 is no effect, 100 is complete control; for Plant response rating, Lambsquarters: scale 0 to 100 (0 no effect, 100 complete control)
Procedure, shortened: as §1

[12] = tested on: wheat, winter; assay: Test C postemergence; type: in vivo, Triticum aestivum; details: for Plant response rating (0 to 100), Wheat: 16 g ai/ha, 0 is no effect, 100 is complete control; for Plant response rating, Wheat: scale 0 to 100 (0 no effect, 100 complete control)
Procedure, shortened: as §1

[13] = 125 g ai/ha, postemergence, visual rating
[14] = 16 g ai/ha, scale 0 to 100 (0 no effect, 100 complete control)
[15] = 62 g ai/ha, scale 0 (no effect) to 100 (complete control)
[16] = 125 g ai/ha, scale 0 (no effect) to 100 (complete control)
[17] = Postemergence, 31 g ai/ha, 13 to 15 days

Compound | Plant response rating (0 to 100), Corn ([1]; postemergence) | Plant response rating, Corn [1, 13] | Plant response rating, Corn ([1]; Postemergence, 62 g ai/ha) | Plant response rating (0 to 100), Chickweed ([2]; postemergence) | Plant response rating, Chickweed [2, 13] | Plant response rating, Chickweed ([2]; Postemergence, 62 g ai/ha) | Plant response rating, Barnyardgrass [3] | Crabgrass, Large plant response rating [4, 14] | Crabgrass, Large plant response rating [4, 15] | Crabgrass, Large plant response rating [4, 16] | Plant response rating, Crabgrass, Large [4] | Plant response rating (0 to 100), Crabgrass, Large ([5]; postemergence) | Plant response rating, Crabgrass, Large [5, 13] | Plant response rating, Crabgrass, Large ([5]; Postemergence, 62 g ai/ha) | Plant response rating (0 to 100), Waterhemp ([6]; postemergence) | Plant response rating, Waterhemp [6, 13] | Plant response rating, Waterhemp ([6]; Postemergence, 62 g ai/ha) | Plant response rating (0 to 100), Foxtail, Giant ([7]; postemergence) | Plant response rating, Foxtail, Giant [7, 13] | Plant response rating, Foxtail, Giant ([7]; Postemergence, 62 g ai/ha) | further results
Clc1cnc(Oc2cccc(Br)c2-n2cc(Br)nn2)nc1 [Compound 129] | 5 | 15 | 10 | 50 | 55 | 70 | 0 | 75 | 100 | 100 | 95 | 5 | 10 | 5 | 65 | 85 | 65 | 5 | 10 | 5 | Pigweed plant response rating [8, 14]: 98; Pigweed plant response rating [8, 15]: 100; Pigweed plant response rating [8, 16]: 100; Plant response rating, Pigweed ([8]; Preemergence, 31 g ai/ha, scale 0 to 100, 0 no effect, 100 complete control): 100; Plant response rating (0 to 100), Barnyardgrass ([9]; postemergence): 5; Plant response rating, Barnyardgrass [9, 13]: 5; Plant response rating, Barnyardgrass [9, 17]: 5; Plant response rating, Barnyardgrass ([9]; Postemergence, 62 g ai/ha): 5; Plant response rating, Sedge, Umbrella [10]: 65; Plant response rating (0 to 100), Lambsquarters ([11]; postemergence): 35; Plant response rating, Lambsquarters [11, 13]: 85; Plant response rating, Lambsquarters ([11]; Postemergence, 62 g ai/ha): 80; Plant response rating (0 to 100), Wheat ([12]; postemergence): 0; Plant response rating, Wheat [12, 13]: 5; Plant response rating, Wheat ([12]; Postemergence, 62 g ai/ha): 0
Cc1cnc(Oc2cccc(C#N)c2-n2cc(I)cn2)nc1 [Compound 136] | 0 | 5 | 0 | 5 | 60 | 5 | 20 | 35 | 100 | 100 | 100 | 5 | 15 | 5 | 40 | 30 | 35 | 5 | 10 | 5 | Pigweed plant response rating [8, 14]: 0; Pigweed plant response rating [8, 15]: 40; Pigweed plant response rating [8, 16]: 100; Plant response rating (0 to 100), Barnyardgrass ([9]; postemergence): 0; Plant response rating, Barnyardgrass [9, 13]: 5; Plant response rating, Barnyardgrass [9, 17]: 0; Plant response rating, Barnyardgrass ([9]; Postemergence, 62 g ai/ha): 0; Plant response rating, Sedge, Umbrella [10]: 70; Plant response rating (0 to 100), Lambsquarters ([11]; postemergence): 20; Plant response rating, Lambsquarters [11, 13]: 75; Plant response rating, Lambsquarters ([11]; Postemergence, 62 g ai/ha): 60; Plant response rating (0 to 100), Wheat ([12]; postemergence): 0; Plant response rating, Wheat [12, 13]: 5; Plant response rating, Wheat ([12]; Postemergence, 62 g ai/ha): 5
